Assay results published in PubChem BioAssay (NCI).
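Where inhibition never reached the appropriate level, the endpoint shown equals the highest concentration tested. Otherwise, values were interpolated linearly from a five-concentration, 48-hour dose response in 96-well plates. GI50 is the concentration that inhibits growth by half. TGI: total growth inhibition.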 Where a SMILES comes first, the peptide text is derived from it. The star is where a group is joined. ONb = O=[N+]([O-])c1ccc(CO*)cc1; Boc = CC(C)(C)OC(=O)*

Key:
Test in all cases: growth of human tumour cells (NCI), 48 h
CCRF-CEM leukemia = tested on: CCRF-CEM leukemia
K-562 leukemia = tested on: K-562 leukemia
NCI-H226 lung = tested on: NCI-H226 lung
SK-MEL-5 melanoma = tested on: SK-MEL-5 melanoma
SN12C renal = tested on: SN12C renal
UACC-257 melanoma = tested on: UACC-257 melanoma
BT-549 breast = tested on: BT-549 breast
HS 578T breast = tested on: HS 578T breast
MDA-MB-435 = tested on: MDA-MB-435
HOP-92 NSCLC = tested on: HOP-92 NSCLC

Row | SMILES | TGI (CCRF-CEM leukemia) [µM] | TGI (K-562 leukemia) [µM] | TGI (NCI-H226 lung) [µM] | TGI (SK-MEL-5 melanoma) [µM] | TGI (SN12C renal) [µM] | TGI (UACC-257 melanoma) [µM] | TGI (BT-549 breast) [µM] | TGI (HS 578T breast) [µM] | TGI (MDA-MB-435) [µM] | TGI (HOP-92 NSCLC) [µM] | GI50 (BT-549 breast) [µM] | GI50 (HOP-92 NSCLC) [µM] | GI50 (HS 578T breast) [µM] | GI50 (K-562 leukemia) [µM] | GI50 (MDA-MB-435) [µM] | GI50 (NCI-H226 lung) [µM] | GI50 (SN12C renal) [µM] | GI50 (UACC-257 melanoma) [µM]
1 | CCOC(=O)C1=C(C)N(c2ccc(C)cc2)C2=C(C(=O)N(c3ccccc3)C2c2ccccc2)C1c1ccccc1 (centres undefined) | > 25 | > 25 | > 25 | > 25 | > 25 | > 25 |  |  |  |  |  |  |  |  |  |  |  | 
2 | COc1ccc2oc(OC)c(CC=C(C)C)c(=O)c2c1C | > 100 | > 100 | > 100 | > 100 | > 100 | > 100 | > 100 | > 100 | > 100 |  |  |  |  |  |  |  |  | 
3 | Cc1ccc(O)c(-c2cc(-c3cccc(Cl)c3)c(C#N)c(N)n2)c1 | 55.2 | 48.4 | 55.4 | 29.2 | 47.6 |  | > 100 | 49.7 | 34.3 | 48.1 |  |  |  |  |  |  |  | 
4 | Cc1c2cnccc2c(C)c2c1c1ccccc1n2CCCCCCNCc1ccccc1 | 5.13 | 9.36 |  | 4.29 | 3.27 | 3.61 |  |  |  | 3.64 |  |  |  |  |  |  |  | 
5 | CN1CCC(CN2c3ccccc3Sc3ccccc32)CC1 | 35.9 | 32.3 | 28.8 | 18.5 | 33.9 | 27.8 |  |  |  | 17.6 |  |  |  |  |  |  |  | 
6 | CN(C)c1nncc2[nH]cnc12 | > 100 | > 100 | > 100 | > 100 | > 100 | > 100 | > 100 | > 100 | > 100 |  |  |  |  |  |  |  |  | 
7 | O=c1[nH]c(=O)n(C2CC(O)C(CO)O2)cc1C1=NC1 (centres undefined) |  |  | > 100 | > 100 | > 100 | > 100 | > 100 | > 100 | > 100 | > 100 |  |  |  |  |  |  |  | 
8 | COc1cc(/C=C/C(=O)c2c(C)nc3ccccc3c2C)ccc1OCCCOc1cc2c(cc1OC)C(=O)N1CCC[C@H]1C=N2 | 0.0215 | 0.0346 | 0.0616 |  | 0.327 | 0.0838 | 0.0428 | 0.0577 | 0.04 | 0.275 | 0.0149 | 0.0367 | 0.0209 | 0.011 | 0.0197 | 0.0227 | 0.0353 | 0.0269
9 | O=C(CCCCCCC(=O)Nc1cccnc1)NO | > 100 | > 100 | > 100 |  | > 38.8 | 87.7 | > 100 | > 95.3 | > 42.6 | > 100 |  |  |  |  |  |  |  | 
10 | CCOC(=O)Cc1nc2sc(S(N)(=O)=O)nn2c1Br |  | > 100 | 73 | 42.4 | 52.5 | > 100 | 83.8 | > 100 | > 100 | 41.1 |  |  |  |  |  |  |  | 
11 | CCCCCCCCCCCCOP(=O)(O)OCC(N)C(=O)O (centres undefined) |  | > 100 | > 100 | 61.7 | 61 | > 100 | 64 | 33.3 | 36.8 | 43.3 |  |  |  |  |  |  |  | 
12 | Cn1/c(=N\S(=O)(=O)c2ccccc2)n(S(=O)(=O)c2ccccc2)c2ccccc21 | 83.3 | > 100 | > 100 | > 100 | > 100 | > 100 | > 100 | > 100 | > 100 |  |  |  |  |  |  |  |  | 
13 | COC(=O)C1=C(O)C(C(=O)OC)[C@]2(O)[C@H](C(=O)OC)[C@H]1C[C@@H](c1c(Cl)cccc1Cl)[C@H]2C(=O)OC (some centres undefined) |  | 6.92 | 4.87 | 3.02 | 5.2 | 6.08 | 6.99 | 27.3 | 3.3 | 14 |  |  |  |  |  |  |  | 
14 | CCC1CN2CCc3c([nH]c4ccccc34)C2C[C@@H]1CC(=O)N(C)C (some centres undefined) | > 100 | > 100 | > 100 | > 100 | > 100 | > 100 |  |  |  | > 100 |  |  |  |  |  |  |  | 
15 | CC(C)CC(NC(=O)OC(C)(C)C)C(=O)NC(CCC(=O)OCc1ccc([N+](=O)[O-])cc1)C(=O)OCc1ccc([N+](=O)[O-])cc1 (stereo not drawn) (Boc-Leu-Glu(ONb)-ONb; configuration not given here) | 57.5 | 39.4 |  |  | > 100 | > 100 |  |  |  | > 100 |  |  |  |  |  |  |  | 
16 | CCOC(=O)c1ccc(C(=O)/C(C(C)=O)=C2\CCCN2C)n1C | > 100 | > 100 | > 100 | > 100 | > 100 | > 100 | > 100 | > 100 | > 100 |  |  |  |  |  |  |  |  | 
17 | Cc1ccc(OC2CC(n3cnc4ncnc(Cl)c43)OC2Oc2ccc(C)cc2)cc1 (centres undefined) |  |  | 31 | 46.4 | > 100 | > 100 | > 100 | 76.9 | > 100 | > 100 |  |  |  |  |  |  |  | 
18 | O=C1CCCC/C1=C\c1ccc(Br)cc1 | 94.4 | 31.7 |  | 44.5 | 41.5 | 70.3 | 28.7 | 52.3 | 30.6 | 35.1 |  |  |  |  |  |  |  | 
19 | Cn1c(-c2ccccc2)cc2c3ccsc3c3ccsc3c21 |  |  | > 100 | > 100 | > 100 | > 100 | > 100 | > 100 | > 100 | > 100 |  |  |  |  |  |  |  | 
20 | CN(C)c1ccccc1CN1CCCN(Cc2ccccc2N(C)C)C1c1ccncc1 |  | 23.9 | 38.7 | 18.3 | 62.2 | 7.98 | 34.6 | 41.8 | 20.2 | 14.8 |  |  |  |  |  |  |  | 
21 | O=C(/C=C/c1ccc(O)c(O)c1)c1cc(O)cc(O)c1 |  |  | 51.5 | > 100 | 26.2 | 23 | 24.7 | 70.5 | 20.3 | 26.8 |  |  |  |  |  |  |  | 
22 | CCN1CCN(c2nc3ccc([N+](=O)[O-])cc3nc2C(=O)c2ccccc2)CC1 | 8.27 | > 100 | 33.3 |  | 30.9 | 36.7 | 16.9 |  | 30.2 | 32.7 |  |  |  |  |  |  |  | 
23 | O=C1/C(=C/c2cccc(Br)c2)CSC/C1=C\c1cccc(Br)c1 | 6.45 | 6.74 |  | 3.59 | 5.22 | 5.9 | 4.47 |  |  | 7.43 |  |  |  |  |  |  |  | 
